Results published in ChEMBL document CHEMBL5247663, “Evaluating the druggability of TrmD, a potential antibacterial target, through design and microbiological profiling of a series of potent TrmD inhibitors” (Bioorg Med Chem Lett, 2023).
≈ marks a conversion by molar mass, not a printed value.

Legend:
Escherichia coli [1] = test: Antibacterial activity against efflux-defective Escherichia coli N43 deficit of AcrAB-TolC assessed as inhibition of bacterial growth; format: functional
Haemophilus influenzae = test: Antibacterial activity against Haemophilus influenzae ATCC 49247 assessed as inhibition of bacterial growth; format: functional
Escherichia coli [2] = test: Antibacterial activity against efflux-defective Escherichia coli N43 deficit of AcrAB-TolC assessed as inhibition of bacterial growth in presence of 4 ug/ml membrane-permeabilising agent, polymyxin B; format: functional
[3] = molecular target: T1, tRNA (guanine-N(1)-)-methyltransferase (Escherichia coli (strain K12), UniProt P0A873); test: Inhibition of Escherichia coli TrmD
T1 sequence (P0A873 whole entry): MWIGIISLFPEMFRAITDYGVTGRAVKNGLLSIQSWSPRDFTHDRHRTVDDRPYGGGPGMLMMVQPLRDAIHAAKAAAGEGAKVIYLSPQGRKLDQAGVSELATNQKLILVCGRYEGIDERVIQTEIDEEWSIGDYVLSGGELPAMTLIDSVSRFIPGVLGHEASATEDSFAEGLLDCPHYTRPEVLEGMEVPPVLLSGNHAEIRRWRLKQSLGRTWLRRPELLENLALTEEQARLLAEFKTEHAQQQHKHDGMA

[4] = Lipophilicity, logD of the compound at pH 7.4; format: physicochemical; conditions: buffer
[5] = molecular target: T1, tRNA (guanine-N(1)-)-methyltransferase; test: Binding affinity to Escherichia coli TrmD by surface plasmon resonance assay
Neisseria gonorrhoeae = test: Antibacterial activity against Neisseria gonorrhoeae ATCC 49226 assessed as inhibition of bacterial growth; format: functional
Pseudomonas aeruginosa = test: Antibacterial activity against Pseudomonas aeruginosa ATCC 27853 assessed as inhibition of bacterial growth; format: functional
Streptococcus pneumoniae = test: Antibacterial activity against Streptococcus pneumoniae ATCC 49619 assessed as inhibition of bacterial growth; format: functional
[6] = system: Staphylococcus epidermidis; test: Antibacterial activity against Staphylococcus epidermidis ATCC 12228 assessed as inhibition of bacterial growth; format: functional
Burkholderia cepacia = test: Antibacterial activity against Burkholderia cepacia ATCC 25416 assessed as inhibition of bacterial growth; format: functional
Bacillus subtilis = test: Antibacterial activity against Bacillus subtilis ATCC 6633 assessed as inhibition of bacterial growth; format: functional
Acinetobacter baumannii = test: Antibacterial activity against Acinetobacter baumannii NCTC 13420 assessed as inhibition of bacterial growth; format: functional
Coxiella burnetii = test: Antibacterial activity against Coxiella burnetii Nine Mile assessed as inhibition of bacterial growth; format: functional
Francisella tularensis = test: Antibacterial activity against Francisella tularensis-Schu S4 assessed as inhibition of bacterial growth; format: functional
[7] = Cytotoxicity against human HepG2 cells; format: toxicity, cell-based
Yersinia pestis = test: Antibacterial activity against Yersinia pestis CO92 assessed as inhibition of bacterial growth; format: functional
Moraxella catarrhalis = test: Antibacterial activity against Moraxella catarrhalis ATCC 25240 assessed as inhibition of bacterial growth; format: functional
Enterococcus faecium = test: Antibacterial activity against Enterococcus faecium ATCC 19434 assessed as inhibition of bacterial growth; format: functional
Escherichia coli [8] = test: Antibacterial activity against Escherichia coli W4573 harboring functional AcrAB-TolC assessed as inhibition of bacterial growth

SMILES | MIC (Escherichia coli [1]) | MIC (Haemophilus influenzae) | MIC (Escherichia coli [2]) | IC50 [3] | also measured
CN(C(=O)Cn1c(C2CC2)cc2cc(C(N)=O)cnc21)C1CCNCC1 | > 256 µg/mL | > 1020 µg/mL | > 512 µg/mL | 0.037 µM | logD [4]: -0.2
NC(=O)c1ccc(N)cn1 | – | – | – | > 1000 µM | –
C[C@@H](Nc1ccc(C(N)=O)cn1)c1ccccc1 | – | – | – | 48 µM | –
CN(C(=O)Cn1ccc2cc(C(N)=O)cnc21)C1CCNCC1 | – | – | – | 0.83 µM | –
NCc1ccc(Cn2ccc3cc(C(N)=O)ccc32)cc1 | – | – | – | 13 µM | –
NC(=O)c1ccc2[nH]ccc2c1 | – | – | – | 160 µM | –
CC(C)(C)CNc1ccc(C(N)=O)cn1 | – | – | – | 0.14 µM | –
NC(=O)c1ccc2nc(N)sc2c1 | – | – | – | 150 µM | Kd [5]: 420 µM
NC(=O)c1ccc(N)cc1 | – | – | – | 670 µM | –
NCc1ccc(CNc2ccc(C(N)=O)cn2)cc1 | – | – | – | 2.3 µM | –
CC(C)(CNc1ccc(C(N)=O)cn1)c1ccccc1 | 512 µg/mL (≈ 1900 µM) | 512 µg/mL (≈ 1900 µM) | 256 µg/mL | 0.027 µM | MIC (Neisseria gonorrhoeae): 128 µg/mL (≈ 475 µM); MIC (Pseudomonas aeruginosa): > 256 µg/mL; MIC (Streptococcus pneumoniae): > 256 µg/mL; MIC [6]: > 256 µg/mL; MIC (Burkholderia cepacia): > 256 µg/mL; MIC (Bacillus subtilis): > 256 µg/mL; MIC (Acinetobacter baumannii): > 256 µg/mL; MIC (Coxiella burnetii): > 64 µg/mL; MIC (Francisella tularensis): > 256 µg/mL; CC50 [7]: > 128 µg/mL; MIC (Yersinia pestis): 256 µg/mL (≈ 950 µM); MIC (Moraxella catarrhalis): 128 µg/mL (≈ 475 µM); MIC (Enterococcus faecium): > 256 µg/mL; logD [4]: 3
NC(=O)c1cnc2c(c1)cc(C1CC1)n2CC(=O)N1CCNCC1 | > 1020 µg/mL | – | > 1020 µg/mL | 0.013 µM | MIC (Neisseria gonorrhoeae): > 256 µg/mL; MIC (Pseudomonas aeruginosa): > 256 µg/mL; MIC (Streptococcus pneumoniae): > 256 µg/mL; MIC [6]: > 256 µg/mL; MIC (Burkholderia cepacia): > 256 µg/mL; MIC (Bacillus subtilis): > 256 µg/mL; MIC (Acinetobacter baumannii): > 256 µg/mL; MIC (Coxiella burnetii): > 64 µg/mL; MIC (Francisella tularensis): > 256 µg/mL; CC50 [7]: > 256 µg/mL; MIC (Yersinia pestis): 256 µg/mL (≈ 782 µM); MIC (Moraxella catarrhalis): > 256 µg/mL; MIC (Enterococcus faecium): > 256 µg/mL; logD [4]: -0.1
NCc1cccc(CNc2ccc(C(N)=O)cn2)c1 | – | – | – | 1.4 µM | –
NC(=O)c1ccc(NCc2cccc(N3CCNCC3)c2)nc1 | > 1020 µg/mL | 1020 µg/mL (≈ 3290 µM) | > 1020 µg/mL | 0.31 µM | logD [4]: 1
C[C@H](Nc1ccc(C(N)=O)cn1)c1ccccc1 | – | – | – | 1.3 µM | –
NC(=O)c1ccc(NC2(c3cccc(N4CCNCC4)c3)CC2)nc1 | > 1020 µg/mL | 1020 µg/mL (≈ 3030 µM) | > 1020 µg/mL | 0.011 µM | logD [4]: 1.4
CC(C)(CNc1ccc(C(N)=O)cn1)c1cccc(CN)c1 | > 1020 µg/mL | 256 µg/mL (≈ 858 µM) | > 1020 µg/mL | 0.009 µM | MIC (Neisseria gonorrhoeae): > 256 µg/mL; MIC (Pseudomonas aeruginosa): > 256 µg/mL; MIC (Streptococcus pneumoniae): > 256 µg/mL; MIC [6]: > 256 µg/mL; MIC (Burkholderia cepacia): > 256 µg/mL; MIC (Bacillus subtilis): > 256 µg/mL; MIC (Acinetobacter baumannii): > 256 µg/mL; MIC (Coxiella burnetii): > 64 µg/mL; MIC (Francisella tularensis): > 256 µg/mL; CC50 [7]: > 256 µg/mL; MIC (Yersinia pestis): 256 µg/mL (≈ 858 µM); MIC (Moraxella catarrhalis): > 256 µg/mL; MIC (Enterococcus faecium): > 256 µg/mL
CN1CCC(N(C)C(=O)Cn2c(C3CC3)cc3cc(C(N)=O)cnc32)CC1 | > 512 µg/mL | > 256 µg/mL | > 1020 µg/mL | 0.039 µM | –
CC(C)(CNc1ccc(C(N)=O)cn1)c1cccc(N2CCNCC2)c1 | 1020 µg/mL (≈ 2900 µM) | > 1020 µg/mL | 1020 µg/mL | 0.05 µM | logD [4]: 1.6

SMILES | MIC (Escherichia coli [1]) | MIC (Haemophilus influenzae) | MIC (Escherichia coli [2]) | IC50 [3] | also measured
CNC(=O)Cn1ccc2cc(C(N)=O)cnc21 | – | – | – | 64 µM | –
CC(C)(Nc1ccc(C(N)=O)cn1)c1ccccc1 | – | – | – | 2.1 µM | –
NC(=O)c1cnc2c(c1)cc(C1CC1)n2CC(=O)N1CCNC(=O)C1 | > 1020 µg/mL | > 512 µg/mL | > 1020 µg/mL | 0.12 µM | –
NC(=O)c1cnc2c(ccn2CC(=O)NC2CNC2)c1 | – | – | – | 4.5 µM | –
NCc1ccc(Cn2ccc3cc(C(N)=O)cnc32)cc1 | – | – | – | 1.9 µM | –
NC(=O)c1cnc2c(ccn2CC(=O)N2CCNCC2)c1 | – | – | – | 0.8 µM | –
CC(C)(CNc1ccc(C(N)=O)cn1)c1cccc(NC2CNC2)c1 | > 1020 µg/mL | > 512 µg/mL | > 1020 µg/mL | 0.13 µM | logD [4]: 1
CC(C)[C@H]1CN(C(=O)Cn2c(C3CC3)cc3cc(C(N)=O)cnc32)CCN1 | > 1020 µg/mL | 1020 µg/mL (≈ 2770 µM) | > 1020 µg/mL | 0.096 µM | –
NC(=O)c1ccc(NCc2ccccc2)nc1 | – | – | – | 3.2 µM | –
NC(=O)c1cnc2c(ccn2CC(=O)NC2CCNCC2)c1 | – | – | – | 6.5 µM | –
NC(=O)c1ccc(NC2CCCC2)nc1 | – | – | – | 0.11 µM | –
OCc1cc(-c2cccs2)[nH]n1 | – | – | – | 320 µM | Kd [5]: 260 µM
NC(=O)c1ccc(N)nc1 [6-AMINONICOTINAMIDE] | – | – | – | 26 µM | Kd [5]: 1.3 µM
NCc1ccc(Cn2c(C3CC3)cc3cc(C(N)=O)cnc32)cc1 | 1020 µg/mL (≈ 3200 µM) | > 1020 µg/mL | 1020 µg/mL | 0.31 µM | logD [4]: 1.4
NC(=O)c1ccc(NC2(c3ccccc3)CC2)nc1 | – | – | – | 0.27 µM | –
CN(C(=O)Cn1c(C2CC2)cc2cc(C(N)=O)cnc21)[C@@H]1C[C@H]2CC[C@@H](C1)N2 | > 512 µg/mL | > 512 µg/mL | > 1020 µg/mL | 0.036 µM | logD [4]: 0.2
CC[C@H]1OC(=O)[C@H](C)[C@@H](O[C@H]2C[C@@](C)(OC)[C@@H](O)[C@H](C)O2)[C@H](C)[C@@H](O[C@@H]2O[C@H](C)C[C@H](N(C)C)[C@H]2O)[C@](C)(O)C[C@@H](C)C(=O)[C@H](C)[C@@H](O)[C@]1(C)O [ERYTHROMYCIN] | 8 µg/mL (≈ 10.9 µM) | 4 µg/mL (≈ 5.45 µM) | 0.5 µg/mL | – | MIC (Escherichia coli [8]): 64 µg/mL (≈ 87.2 µM)
CN1CCN(C(=O)Cn2c(C3CC3)cc3cc(C(N)=O)cnc32)CC1 | > 512 µg/mL | > 1020 µg/mL | > 512 µg/mL | 0.038 µM | logD [4]: 2.7
NC(=O)c1ccc(NCc2cccc(N3CCNC(C(F)(F)F)C3)c2)nc1 (centres undefined) | – | – | – | > 10 µM | –
